Measurements published in US10294202B2, “Pyrrolidinones as herbicides” (FMC Corporation, priority 2013, dated 2019).

What was measured:
[1] = test system: morningglory; test: Test A pre-/postemergence herbicide test; assay type: in vivo, Ipomoea spp.; details: for Morningglory plant response rating: visual rating on 0 to 100 scale (0 no effect, 100 complete control)
Method in brief: (§1)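 Scoring was visual, relative to untreated controls, on a 0–100 scale after about 10 greenhouse days. Preemergence treatment used a directed soil spray over seeded loam/sand; postemergence treatment targeted one- to two-leaf plants of 2–10 cm.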

[2] = test system: crabgrass, large; test: Test A pre-/postemergence herbicide test; assay type: in vivo, Digitaria sanguinalis; details: for Crabgrass, Large plant response rating: visual rating on 0 to 100 scale (0 no effect, 100 complete control)
Method in brief: as §1

[3] = test system: barnyardgrass; test: Test C flooded paddy test; assay type: in vivo, Echinochloa crus-galli; details: Flood
Method in brief: (§2)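 Visual injury scored against controls after 13 to 15 days in the greenhouse, using 0 (no effect) to 100 (complete control). Test compounds went straight into paddy water held 3 cm above the soil surface on 2-leaf-stage plants, with that flood depth maintained for the whole test.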

[4] = test system: sedge, umbrella; test: Test C flooded paddy test; assay type: in vivo, Cyperus difformis; details: Flood
Method in brief: as §2

[5] = test system: velvetleaf; test: Test A pre-/postemergence herbicide test; assay type: in vivo, Abutilon theophrasti; details: for Velvetleaf plant response rating: visual rating on 0 to 100 scale (0 no effect, 100 complete control)
Method in brief: as §1

[6] = test system: ducksalad; test: Test C flooded paddy test; assay type: in vivo, Heteranthera limosa; details: Flood
Method in brief: as §2

[7] = test system: ryegrass, Italian; test: Test A pre-/postemergence herbicide test; assay type: in vivo, Lolium multiflorum
Method in brief: as §1

[8] = Postemergence, 500 g ai/ha, 0 to 100 scale (0 no effect, 100 complete control)
[9] = preemergence, 500 g ai/ha, 0 to 100 scale
[10] = Postemergence, 125 g ai/ha, 0 to 100 scale, 0 no effect, 100 complete control
[11] = 31 g ai/ha, scale of 0 to 100 where 0 is no effect and 100 is complete control, 13 to 15 days
[12] = 62 g ai/ha, scale of 0 to 100 where 0 is no effect and 100 is complete control, 13 to 15 days
[13] = 125 g ai/ha, scale of 0 to 100 where 0 is no effect and 100 is complete control, 13 to 15 days
[14] = 125 g ai/ha, visual rating, 0 to 100 scale, 0 no effect, 100 complete control, approximately 10 days, preemergence
[15] = Postemergence, 125 g ai/ha, 0 to 100 scale, 0 is no effect, 100 is complete control
[16] = preemergence, 500 g ai/ha, 0 to 100 scale, 0 is no effect and 100 is complete control
[17] = 250 g ai/ha, scale of 0 to 100 where 0 is no effect and 100 is complete control, 13 to 15 days
[18] = Preemergence, 125 g ai/ha, 0 to 100 scale where 0 is no effect and 100 is complete control
[19] = Postemergence, 125 g ai/ha, visual rating on 0 to 100 scale (0 no effect, 100 complete control), approx. 10 days
[20] = Preemergence, 500 g ai/ha, visual rating on 0 to 100 scale (0 no effect, 100 complete control)

SMILES	Plant response rating, Morningglory [1, 8]	Plant response rating, Crabgrass, Large [2, 8]	Plant response rating, Barnyardgrass [3, 11]	Plant response rating, Barnyardgrass [3, 12]	Plant response rating, Barnyardgrass [3, 13]	Plant response rating, Barnyardgrass ([3]; 250 g ai/ha, scale 0 to 100)	Plant response rating, Sedge, Umbrella [4, 11]	Plant response rating, Sedge, Umbrella [4, 12]	Plant response rating, Sedge, Umbrella [4, 13]	Plant response rating, Sedge, Umbrella ([4]; 250 g ai/ha, scale 0 to 100)	Plant response rating, Velvetleaf [5, 8]	Plant response rating, Ducksalad [6, 11]	Plant response rating, Ducksalad [6, 12]	Plant response rating, Ducksalad [6, 13]	Plant response rating, Ducksalad ([6]; 250 g ai/ha, scale 0 to 100)	Plant response rating, Barnyardgrass ([3]; 500 g ai/ha, scale 0 to 100)	Plant response rating, Barnyardgrass ([3]; 1000 g ai/ha, scale 0 to 100)	Plant response rating, Barnyardgrass [3, 17]	Plant response rating, Sedge, Umbrella [4, 17]	Plant response rating, Ducksalad [6, 17]	also measured
O=C1NCC(c2cccc(C(F)(F)F)c2)C1C(=O)Nc1ccccc1F (racemic) [Compound 3]	30	80	0	20	40	55	0	0	0	50	0	40	60	85	90	–	–	–	–	–	Morningglory plant response rating ([1]; Preemergence, 125 g ai/ha): 0; Plant response rating, Morningglory [1, 9]: 0; Plant response rating, Crabgrass, Large [2, 10]: 70; Crabgrass, Large plant response rating ([2]; Preemergence, 125 g ai/ha): 90; Plant response rating, Crabgrass, Large [2, 9]: 90; Velvetleaf plant response rating ([5]; Preemergence, 125 g ai/ha): 0; Plant response rating, Velvetleaf [5, 9]: 0
O=C1NCC(c2ccc(F)c(F)c2)C1C(=O)Nc1cccc(F)c1 (racemic) [Compound 12]	0	90	0	0	0	65	0	0	0	0	20	0	0	0	0	–	–	–	–	–	Plant response rating, Morningglory [1, 10]: 0; Morningglory plant response rating ([1]; Preemergence, 125 g ai/ha): 0; Plant response rating, Morningglory [1, 9]: 0; Plant response rating, Crabgrass, Large [2, 10]: 80; Crabgrass, Large plant response rating ([2]; Preemergence, 125 g ai/ha): 90; Plant response rating, Crabgrass, Large [2, 9]: 90; Plant response rating, Velvetleaf [5, 10]: 0; Velvetleaf plant response rating ([5]; Preemergence, 125 g ai/ha): 0; Plant response rating, Velvetleaf [5, 9]: 0
O=C1NCC(c2ccc(F)cc2)C1C(=O)Nc1cccc(F)c1F (racemic) [Compound 119]	–	–	30	50	60	75	0	0	0	0	–	100	100	100	100	–	–	–	–	–	Plant response rating, Ryegrass, Italian [7, 14]: 20; Plant response rating, Ryegrass, Italian [7, 10]: 20; Ryegrass, Italian plant response rating (0 to 100 scale, 0 is no effect, 100 is complete control) ([7]; Postemergence, 500 g ai/ha): 40; Plant response rating, Ryegrass, Italian [7, 9]: 60
O=C1NCC(c2cccc(C(F)(F)F)c2)C1C(=O)Nc1ccccc1Cl (racemic) [Compound 189]	–	–	–	–	10	30	–	–	0	0	–	–	–	75	80	50	75	–	–	–	Plant response rating, Morningglory [1, 14]: 0; Plant response rating, Morningglory [1, 15]: 0; Morningglory plant response rating (0 to 100 scale, 0 is no effect, 100 is complete control) ([1]; Postemergence, 500 g ai/ha): 0; Plant response rating, Morningglory [1, 16]: 0; Plant response rating, Crabgrass, Large [2, 14]: 90; Plant response rating, Crabgrass, Large [2, 15]: 60; Crabgrass, Large plant response rating (0 to 100 scale, 0 is no effect, 100 is complete control) ([2]; Postemergence, 500 g ai/ha): 80; Plant response rating, Crabgrass, Large [2, 16]: 90; Plant response rating, Sedge, Umbrella ([4]; 500 g ai/ha, scale 0 to 100): 0; Plant response rating, Sedge, Umbrella ([4]; 1000 g ai/ha, scale 0 to 100): 0; Plant response rating, Velvetleaf [5, 14]: 0; Plant response rating, Velvetleaf [5, 15]: 0; Velvetleaf plant response rating (0 to 100 scale, 0 is no effect, 100 is complete control) ([5]; Postemergence, 500 g ai/ha): 0; Plant response rating, Velvetleaf [5, 16]: 0; Plant response rating, Ducksalad ([6]; 500 g ai/ha, scale 0 to 100): 95; Plant response rating, Ducksalad ([6]; 1000 g ai/ha, scale 0 to 100): 100
O=C1NCC(c2cccc(C(F)F)c2)C1C(=O)Nc1cccc(F)c1F (racemic) [Compound 211]	–	–	–	–	0	–	–	–	0	–	–	–	–	60	–	55	80	50	0	100	Plant response rating, Sedge, Umbrella ([4]; 500 g ai/ha, scale 0 to 100): 0; Plant response rating, Sedge, Umbrella ([4]; 1000 g ai/ha, scale 0 to 100): 30; Plant response rating, Ryegrass, Italian [7, 14]: 0; Plant response rating, Ryegrass, Italian [7, 15]: 30; Ryegrass, Italian plant response rating (0 to 100 scale, 0 is no effect, 100 is complete control) ([7]; Postemergence, 500 g ai/ha): 60; Plant response rating, Ryegrass, Italian [7, 16]: 40; Plant response rating, Ducksalad ([6]; 500 g ai/ha, scale 0 to 100): 75; Plant response rating, Ducksalad ([6]; 1000 g ai/ha, scale 0 to 100): 100
O=C1NCC(c2ccc(C(F)(F)F)c(F)c2)C1C(=O)Nc1cccc(F)c1F (racemic) [Compound 247]	0	70	–	–	–	–	–	–	–	–	0	–	–	–	–	35	70	25	0	75	Plant response rating, Morningglory [1, 15]: 0; Plant response rating, Morningglory [1, 18]: 0; Plant response rating, Morningglory [1, 16]: 0; Plant response rating, Crabgrass, Large [2, 15]: 50; Plant response rating, Crabgrass, Large [2, 18]: 90; Plant response rating, Crabgrass, Large [2, 16]: 90; Plant response rating, Barnyardgrass ([3]; 2000 g ai/ha, scale 0 to 100): 80; Plant response rating, Sedge, Umbrella ([4]; 500 g ai/ha, scale 0 to 100): 0; Plant response rating, Sedge, Umbrella ([4]; 1000 g ai/ha, scale 0 to 100): 0; Plant response rating, Sedge, Umbrella ([4]; 2000 g ai/ha, scale 0 to 100): 0; Plant response rating, Velvetleaf [5, 15]: 0; Plant response rating, Velvetleaf [5, 18]: 0; Plant response rating, Velvetleaf [5, 16]: 0; Plant response rating, Ducksalad ([6]; 500 g ai/ha, scale 0 to 100): 85; Plant response rating, Ducksalad ([6]; 1000 g ai/ha, scale 0 to 100): 100; Plant response rating, Ducksalad ([6]; 2000 g ai/ha, scale 0 to 100): 100
O=C1NCC(c2cccc(C(F)(F)F)c2)C1C(=O)Nc1ccccc1Cl (stereo not drawn) [Compound 312]	–	–	0	0	30	–	0	0	0	–	–	50	60	65	–	–	–	60	0	95	Plant response rating, Ryegrass, Italian [7, 19]: 20; Plant response rating, Ryegrass, Italian [7, 8]: 40; Plant response rating, Ryegrass, Italian [7, 18]: 20; Ryegrass, Italian plant response rating [7, 20]: 60
Cc1cccc(NC(=O)C2C(=O)NCC2c2cccc(C(F)(F)F)c2)c1 (stereo not drawn) [Compound 317]	–	–	0	0	30	–	0	0	0	–	–	0	0	0	–	–	–	30	0	0	Plant response rating, Ryegrass, Italian [7, 19]: 0; Plant response rating, Ryegrass, Italian [7, 8]: 0; Plant response rating, Ryegrass, Italian [7, 18]: 0; Ryegrass, Italian plant response rating [7, 20]: 0
O=C1NCC(c2cccc(OC(F)F)c2)C1C(=O)Nc1cccc(F)c1F (stereo not drawn) [Compound 324]	–	–	0	0	60	–	0	0	0	–	–	40	70	95	–	–	–	70	0	100	Plant response rating, Ryegrass, Italian [7, 19]: 30; Plant response rating, Ryegrass, Italian [7, 8]: 50; Plant response rating, Ryegrass, Italian [7, 18]: 30; Ryegrass, Italian plant response rating [7, 20]: 40
